For the test, the system named is S. aureus, P. aeruginosa, c. albicans, E. coli and/or A. niger. Description: abbreviated preservative efficacy test against Ph Eur-A (EP-A) and Ph Eur-B (EP-B) criteria. In kind it is cell-based. Particulars: 20 ppm BAK alone in ophthalmic solution. As to the method:
Each of these formulations is tested by performing an abbreviated preservative efficacy test using test organisms S. aureus, P. aeruginosa, c. albicans, E. coli and/or A. niger. The formulations are tested against United States Preservative Efficacy Test (USP), European Efficacy Test-A (EP-A) and European Efficacy Test-B (EP-B) criteria as indicated. Ten (10) ml of each formulation is challenged with approximately 10^5 cfu/ml of test organism. At appropriate time intervals, the amount of bacterial and fungal survivors are assayed using Dey Engley broth (DE) as the neutralizer media. DE, along with filtration, is sufficient at neutralizing the antimicrobial agents in the compositions. One (1) ml of each sample is diluted into nine (9) ml of DE. One (1) ml of the 1:10 dilution is filtered through a 0.45 µm filter and washed with 100 ml of a saline/polysorbate 80 solution. After washing the filtrate a second time with 100 ml of saline/polysorbate 80 solution, the filtrate is placed onto a TSA plate for bacteria and SAB for fungi.

1 substance from patent US20110250294A1, “COMBINATIONS OF PRESERVATIVE COMPOSITIONS FOR OPHTHALMIC FORMULATIONS” (ALLERGAN, INC., priority 2010, published 2011) can be followed below.

Consider benzalkonium chloride [BAK], for which the “Ph Eur-B & A criteria (pass/fail)” value is “failed”.
